Records with an inconclusive call do not appear. Activity calls are given as the source filed them. How the calls were made is not given here. Bounds are passed on as bounds.

The term EC50 denotes the concentration needed to bring the measured effect to its halfway point.

The subject of this experiment is C. albicans CaCi-8 + fluconazole, Alamar Blue growth, 48 h. Kind of experiment: resistant C. albicans growth inhibition with fluconazole, dose response, CaCi-8 strain, Alamar Blue fluorescence (AID 2423).
As to `O=C(Nc1nnc(SCc2ccc(Cl)cc2)s1)c1cnccn1`, the EC50 was 1.55 µM.

As for `CC(C)(C)CC(=O)Nc1nnc(C(F)(F)F)s1`, the EC50 is > 16 µM (inactive).

In the case of `Cc1ccccc1/C=C1\SC(=S)N(/N=C/c2cc([N+](=O)[O-])ccc2O)C1=O`, the EC50 is 4.06 µM.

Take `CC(=S)/C=C1\Sc2ccccc2N1C`: the EC50 was 5.57 µM.

For `CC1(O)CC(c2ccc(Cl)cc2)=NN1C(=O)c1ccc([N+](=O)[O-])cc1` (stereo unspecified), the EC50 is 3.21 µM.

In the case of `Cc1nc2c(=O)oc3ccccc3c2n1-c1ccccc1`, the EC50 is 2.43 µM.

Regarding `O=C1C(Nc2ccccc2)=C/C(=N/S(=O)(=O)c2cccs2)c2ccccc21`, the EC50 is 3.35 µM.

In the case of `O=C(CC(NCCN1CCOCC1)C(=O)O)Nc1cccc(Cl)c1` (stereo unspecified), the EC50 was > 16 µM (inactive).

As for `CCOc1ccc(NC(=S)NNC(=O)c2ccc(Br)cc2)cc1`, the EC50 is 1.56 µM.

In the case of `O=C(/C=C\c1ccc(-c2cccc([N+](=O)[O-])c2)o1)N1CCOCC1`, the EC50 is 3.1 µM.

Regarding `O=C(Oc1cc2oc(=O)c3c(c2cc1Cl)CCCC3)c1cccs1`, the EC50 is 0.653 µM.

Take `CC(C)(C)C(=O)NC(=S)NNC(=O)c1ccc(-c2ccccc2)cc1`: the EC50 is below 0.12 µM.

On to `CCCOCc1ccc(O)c2ncccc12`, for which the EC50 is 2.17 µM.

For `CCCCCCOC(=O)C[N+](C)(C)CCOC1CC2CCC1(C)C2(C)C` (stereo unspecified), the EC50 was 1.16 µM.

As for `CC(C)OP(=O)(c1ccc(N(C)C)cc1)C(O)c1ccccc1` (stereo unspecified), the EC50 was 4.32 µM.

Regarding `COc1cccc2c(SCC(=O)N/N=C/c3ccc(O)c(O)c3)cc(C)nc12`, the EC50 was > 16 µM (inactive).

Turning to `CSc1nc(Cl)c(C#N)c(-c2ccc(C)cc2)n1`, the EC50 was 2.84 µM.

With `Cc1cccc(NC(=S)N/N=C(\c2ccccc2)C(C)C)c1`, the EC50 is 3.12 µM.

`O=[N+]([O-])c1ccc(N2CCN(Cc3ccc([N+](=O)[O-])o3)CC2)cc1`: the EC50 was 1.65 µM.

Regarding `Cc1ccc2[nH]c(C)c(/C=C/c3cc[n+](C)cc3)c2c1`, the EC50 is 2.91 µM.

Regarding `Brc1ccc(/C=C/C=N/Nc2nc3ccccc3s2)cc1`, the EC50 is > 16 µM (inactive).

In the case of `CCOC(=O)c1ccccc1OCc1cc(/C=N/n2cnnc2)ccc1OC`, the EC50 is > 15 µM (inactive).

For `Cc1cccc(C)c1OCC(=O)NNC(=S)NC(=O)C1CC1`, the concentration for a half-maximal effect (EC50) was 0.95 µM.

In the case of `CC1=C(C(N)=O)C(c2ccc(C)o2)C(C(N)=O)=C(C)N1`, the EC50 is > 16 µM (inactive).

Take `Cc1ccc2c(c1)sc(-c1ccc(N(C)C)cc1)[n+]2C`: the 50% effective concentration (EC50) is 0.193 µM.

As to `CCCC(=O)NC(c1ccco1)c1cc([N+](=O)[O-])c2cccnc2c1O` (stereo unspecified), the EC50 was 0.84 µM.

In the case of `CC(=O)Nc1ccc(NC(=O)CCCN2C(=O)c3ccccc3C2=O)cc1`, the EC50 is > 15 µM (inactive).

`Cc1ccc(S(=O)(=O)CC(C)N2CCOCC2)c(S(=O)(=O)CC(C)N2CCOCC2)c1` (stereo unspecified): the EC50 was > 16 µM (inactive).

For `CCCCCCCCC(=O)NNC(=O)c1c(O)c2ccccc2n(CC)c1=O`, the EC50 was 1.91 µM.

With `O=C(Oc1cc2oc(=O)cc(-c3ccccc3)c2cc1Cl)C1CCCCC1`, the EC50 was 1.21 µM.

Turning to `N#CC1CC(c2ccccc2)=NN1c1ccccc1[N+](=O)[O-]` (stereo unspecified), the 50% effective concentration (EC50) was 0.404 µM.

As for `Cn1c(NN)nc2sc3c(c2c1=O)CCC3`, the EC50 is 10.1 µM.

As for `O=c1c2cc(Br)ccc2nc(-c2ccccc2)n1O`, the EC50 is 2.08 µM.

Take `COc1ccc(N(CC(=O)Nc2ccccc2C(N)=O)S(=O)(=O)c2ccc(C)c([N+](=O)[O-])c2)cc1`: the EC50 was 0.319 µM.

As to `Cc1ccc2nc(Cl)c3nnnn3c2c1`, the EC50 was 0.23 µM.

As to `Oc1ccccc1N=Nc1ccccc1O`, the EC50 is 0.973 µM.

As for `Oc1c(CN2CCOCC2)cc(COCc2ccccc2)c2cccnc12`, the EC50 is 0.963 µM.

As to `CC(C)C(Sc1nc(-c2ccccc2)cc(-c2ccccc2)c1C#N)C(=O)O` (stereo unspecified), the EC50 was 3.77 µM.

Turning to `Cc1ccc2ccc3ccc(C)nc3c2n1`, the EC50 is 0.999 µM.

`O=C(NCCc1ccccc1)c1c(O)c2cccc3c2n(c1=O)CC3`: the EC50 was > 15 µM (inactive).

With `Cc1cc(NC(=O)c2cccc(Oc3ccccc3)c2)n[nH]1`, the EC50 was 1.57 µM.

With `Oc1c(Br)cc(Br)cc1Oc1ccc(Br)cc1Br`, the EC50 was 1.76 µM.

As for `CCOc1cccc(-c2cc(-c3n[nH]c(=S)n3CC)c3ccccc3n2)c1`, the EC50 is 4 µM.

Take `Cc1cc2oc3ccc(NCCCn4ccnc4)cc3c(=O)c2cc1C`: the EC50 was 1.99 µM.

`O=C(O)c1cccc(CSc2nc(-c3ccccc3)cc(C(F)(F)F)n2)c1`: the EC50 is 6.82 µM.

As for `COCCSc1nnc(NC(=O)C2CC(=O)N(c3ccc(C)cc3)C2)s1` (stereo unspecified), the EC50 is > 16 µM (inactive).

Take `COC(=O)C1=NN(C(=O)c2ccc(Cl)cc2)C(O)(c2ccccc2)C1` (stereo unspecified): the EC50 was > 16 µM (inactive).

For the compound `O=C(ONC1=NCCCCC1)c1cccc([N+](=O)[O-])c1`, the EC50 was 0.969 µM.

`O=C(CCN1CCN(c2ccccc2)CC1)N/N=C/c1ccc(O)c(O)c1O`: the EC50 was 4.02 µM.

Turning to `CCN1/C(=C/C=C/c2oc3ccc(-c4ccccc4)cc3[n+]2CC)Oc2ccc(-c3ccccc3)cc21`, the EC50 is 0.589 µM.

`O=C(Oc1c(Cl)cc(Cl)c2cccnc12)N1CCOCC1`: the EC50 is > 15 µM (inactive).

Regarding `COCCN(C(=O)CSc1nnc(-c2cccc(C)c2)n1C)c1c(N)n(Cc2ccccc2)c(=O)[nH]c1=O`, the EC50 was > 16 µM (inactive).

With `c1ccc(CN2CCc3nc4ccccc4cc3C2)cc1`, the EC50 was > 16 µM (inactive).

On to `COc1cc2c(cc1O)CC[n+]1cc3c(OC)c(OC)ccc3cc1-2`, for which the EC50 was > 16 µM (inactive).

As for `N#C/C(=C\c1ccc(OC(=O)c2cccs2)cc1)c1nc2ccccc2[nH]1`, the EC50 is 3.21 µM.

On to `CCCCC(=O)NC(c1ccc(Cl)cc1Cl)c1ccc2cccnc2c1O` (stereo unspecified), for which the EC50 is 0.407 µM.

As for `N#C/C(=N/Nc1ccc(OC(F)(F)F)cc1)C(N)=S`, the EC50 was > 15 µM (inactive).

Regarding `Cc1ccc(Sc2ncccc2C(=O)NCc2cc([N+](=O)[O-])ccc2O)c(C)c1`, the EC50 is > 15 µM (inactive).

`O=C(Cc1ccccc1)N/N=C/c1cc(Br)cc(Cl)c1O`: the EC50 is > 15 µM (inactive).

Take `O=[N+]([O-])c1cc(Br)c(O)c(/C=N/Nc2nnnn2-c2cccc3ccccc23)c1`: the EC50 is > 15 µM (inactive).

On to `O=C(NC(Cc1ccccc1)C(=O)NCc1ccccn1)c1ccco1` (stereo unspecified), for which the EC50 is > 15 µM (inactive).

Consider `COc1ccc(C(=O)On2c(-c3ccc(Br)cc3)nc3ccccc3c2=O)cc1`, for which the EC50 was 1.11 µM.

Take `Cc1nc2ccccc2cc1OCc1ccccc1`: the EC50 was 1.62 µM.

On to `CS/C(=N\S(=O)(=O)c1cccs1)Nc1ccc(Cl)cc1`, for which the EC50 is 1.2 µM.

As to `COc1ccc(/C=C2\N=C(SC)NC2=O)cc1`, the concentration giving a half-maximal response (EC50) was 3.75 µM.

As to `Cc1cccc(NC(=S)NNC(=O)c2csc(C(C)C)c2)c1`, the concentration for a half-maximal effect (EC50) was 4.24 µM.

As to `Cc1cc(Sc2ncnc(N)c2[N+](=O)[O-])ncn1`, the EC50 is 0.659 µM.

As to `Cc1ccc(C(=O)O/N=C/c2c(N3CCOCC3)n(C)c3ccccc23)cc1`, the EC50 is 0.623 µM.

Take `COc1ccc(Cl)cc1C(Nc1cccnc1)c1ccc2cccnc2c1O` (stereo unspecified): the EC50 is 1.02 µM.

On to `Oc1ccc(N=Nc2ccccc2C(F)(F)F)c2cccnc12`, for which the EC50 is 1.08 µM.

Consider `Cc1ccc(C(=O)NC(=S)NNC(=O)c2ccccc2[N+](=O)[O-])cc1`, for which the EC50 was > 15 µM (inactive).

The values above are taken from PubChem BioAssay AID2423 (Broad Institute, 2010).
